Converted amounts (≈) assume the structure as drawn. Read-outs that look alike come from different tables or passages of the source.
System: bacteria
Conditions: for MIC, Peptide: unmodified parent peptide
[1] = A. calcoaceticus AC002, agarose dilution
[2] = E. cloacae ECL007, agarose dilution
[3] = E. faecalis EFS001, agarose dilution
[4] = E. faecalis EFS008, agarose dilution
[5] = K. pneumoniae KP001, agarose dilution
[6] = P. aeruginosa PA004, agarose dilution
[7] = S. aureus SA014, agarose dilution
[8] = S. aureus SA093, agarose dilution
[9] = S. epidermidis SE010, agarose dilution
[10] = S. maltophilia SMA002, agarose dilution
[11] = S. marcescens SMS003, agarose dilution

Molecule: CC[C@H](C)[C@H](NC(=O)[C@H](CC(C)C)NC(=O)[C@H](C)NC(=O)[C@@H]1CCCN1C(=O)[C@H](CC(C)C)NC(=O)CNC(=O)[C@@H](NC(=O)[C@@H](NC(=O)[C@H](CC(C)C)NC(=O)[C@@H](NC(=O)[C@H](CCCCN)NC(=O)[C@H](CCCCN)NC(=O)[C@@H](NC(=O)[C@H](C)NC(=O)[C@@H](NC(=O)[C@@H](NC(=O)[C@H](CC(C)C)NC(=O)[C@H](CCCCN)NC(=O)[C@H](CCCCN)NC(=O)[C@@H](NC(=O)[C@H](Cc1ccccc1)NC(=O)[C@H](CO)NC(=O)[C@H](CCCCN)NC(=O)[C@H](Cc1c[nH]c2ccccc12)NC(=O)[C@@H](N)CCCCN)[C@@H](C)CC)[C@@H](C)O)[C@@H](C)O)C(C)C)C(C)C)[C@@H](C)O)[C@@H](C)O)C(=O)N[C@@H](CO)C(=O)O [MBI29]
- MIC, Peptide [1]: 1 µg/mL (≈ 0.348 µM)
- MIC, Peptide [2]: >64 µg/mL
- MIC, Peptide (E. coli EC0005, agarose dilution): 4 µg/mL (≈ 1.39 µM)
- MIC, Peptide [3]: 0.5 µg/mL (≈ 0.174 µM)
- MIC, Peptide [4]: 0.5 µg/mL (≈ 0.174 µM)
- MIC, Peptide [5]: 2 µg/mL (≈ 0.696 µM)
- MIC, Peptide [6]: 16 µg/mL (≈ 5.57 µM)
- MIC, Peptide [7]: 1 µg/mL (≈ 0.348 µM)
- MIC, Peptide [8]: 0.5 µg/mL (≈ 0.174 µM)
- MIC, Peptide [9]: 4 µg/mL (≈ 1.39 µM)
- MIC, Peptide [10]: 2 µg/mL (≈ 0.696 µM)
- MIC, Peptide [11]: >128 µg/mL

Molecule: I L K K F P F W P W R R K [MBI 11A7CN]
- MIC [1]: 4 µg/mL
- MIC [2]: >128 µg/mL
- MIC (E. coli ECO005, agarose dilution): 8 µg/mL
- MIC [3]: 2 µg/mL
- MIC (E. faecalis EFS002): 16 µg/mL
- MIC [4]: 4 µg/mL
- MIC (E. faecium EFM003): 2 µg/mL
- MIC [5]: 8 µg/mL
- MIC [6]: >128 µg/mL
- MIC (S. aureus SA009): 2 µg/mL
- MIC [7]: 4 µg/mL
- MIC [8]: 1 µg/mL
- MIC [9]: 4 µg/mL
- MIC [10]: 64 µg/mL
- MIC [11]: >28 µg/mL

Molecule: I L K K F P W F P W R R K [MBI 11A6CN]
- MIC (A. calcoaceticus AC002): 2 µg/mL
- MIC (E. cloacae ECL007): >128 µg/mL
- MIC (E. coli ECO005): 16 µg/mL
- MIC (E. faecalis EFS001): 1 µg/mL
- MIC (E. faecalis EFS004): 64 µg/mL
- MIC (E. faecalis EFS008): 8 µg/mL
- MIC (E. faecium EFM003): 2 µg/mL
- MIC (K. pneumoniae KP001): 32 µg/mL
- MIC (P. aeruginosa PA004): >128 µg/mL
- MIC (S. aureus SA014): 4 µg/mL
- MIC (S. aureus SA016): 2 µg/mL

Molecule: I L K K I P I I P I R R K [MBI 11A2CN]
- MIC (A. calcoaceticus AC001): >128 µg/mL
- MIC (E. cloacae ECL007): >128 µg/mL
- MIC (E. coli ECO003): >128 µg/mL
- MIC (E. faecalis EFS002): >128 µg/mL
- MIC (E. faecium EFM003): 16 µg/mL
- MIC (K. pneumoniae KP002): >128 µg/mL
- MIC (P. aeruginosa PA004): >128 µg/mL
- MIC (S. aureus SA004): 8 µg/mL
- MIC (S. maltophilia SMA001): >128 µg/mL
- MIC (S. marcescens SMS003): >128 µg/mL

Molecule: I L K K P W W P W R R K [MBI 11G3CN]
- MIC (E. cloacae ECL007): >128 µg/mL
- MIC (E. coli ECO003): 64 µg/mL
- MIC (E. faecalis EFS002): 64 µg/mL
- MIC (E. faecium EFM002): 32 µg/mL
- MIC (K. pneumoniae KP001): >128 µg/mL
- MIC (P. aeruginosa PA003): >128 µg/mL
- MIC (S. aureus SA009): 8 µg/mL
- MIC (S. maltophilia SMA001): >128 µg/mL
- MIC (S. marcescens SMS004): >128 µg/mL

Molecule: I L K K W P W P W R R K [MBI 11A4CN]
- MIC (A. calcoaceticus AC002): 8 µg/mL
- MIC (E. cloacae ECL007): >128 µg/mL
- MIC (E. coli ECO003): 32 µg/mL
- MIC (E. faecalis EFS002): 64 µg/mL
- MIC (E. faecium EFM001): 32 µg/mL
- MIC (K. pneumoniae KP001): >128 µg/mL
- MIC (P. aeruginosa PA004): >128 µg/mL
- MIC (S. aureus SA005): 2 µg/mL
- MIC (S. epidermidis SE002): 8 µg/mL
- MIC (S. maltophilia SMA002): >128 µg/mL
- MIC (S. marcescens SMS004): >128 µg/mL

Molecule: I L K K W P W W A W R R K [MBI 11C4CN]
- MIC (A. calcoaceticus AC002): 4 µg/mL
- MIC (E. cloacae ECL007): >128 µg/mL
- MIC (E. coli ECO005): 32 µg/mL
- MIC (E. faecalis EFS002): 32 µg/mL
- MIC (E. faecium EFM003): 2 µg/mL
- MIC (K. pneumoniae KP001): >128 µg/mL
- MIC (P. aeruginosa PA005): >128 µg/mL
- MIC (S. aureus SA009): 4 µg/mL
- MIC (S. epidermidis SE002): 4 µg/mL
- MIC (S. maltophilia SMA002): 64 µg/mL
- MIC (S. marcescens SMS004): >128 µg/mL

Molecule: I L K K W P W W P R R K [MBI 11G6ACN]
- MIC (A. calcoaceticus AC002): 4 µg/mL
- MIC (E. coli ECO005): 64 µg/mL
- MIC (E. faecalis EFS008): >128 µg/mL
- MIC (S. aureus SA014): 64 µg/mL
- MIC (S. epidermidis SE010): 32 µg/mL
- MIC (S. maltophilia SMA002): >128 µg/mL

Reference: patent publication US6503881B2 (priority 1996, dated 2003)
